Data: PubChem BioAssay (NCI)
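Following 48 hours of exposure in 96-well plates, responses at five concentrations were used to interpolate endpoints linearly. At the GI50, growth is halved. TGI: concentration producing complete growth inhibition.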

What was measured:
Assay in all cases: DTP human tumour cell line panel, 48 h
[1] = test system: HCC-2998 colon
[2] = test system: KM12 colon
[3] = test system: OVCAR-3 ovarian
[4] = test system: MCF7 breast
[5] = test system: SK-MEL-28 melanoma
[6] = test system: OVCAR-4 ovarian
[7] = test system: RPMI-8226 leukemia
[8] = test system: DU-145 prostate
[9] = test system: SF-539 CNS
[10] = test system: RXF 393 renal
[11] = test system: HCT-15 colon
[12] = test system: U251 CNS
[13] = test system: UACC-62 melanoma
[14] = test system: LOX IMVI melanoma
[15] = test system: SK-MEL-5 melanoma
[16] = test system: NCI/ADR-RES ovarian
[17] = test system: HL-60(TB) leukemia
[18] = test system: PC-3 prostate
[19] = test system: OVCAR-8 ovarian
[20] = test system: NCI-H23 lung
[21] = test system: UO-31 renal
[22] = test system: OVCAR-5 ovarian
[23] = test system: CCRF-CEM leukemia
[24] = test system: SN12C renal
[25] = test system: IGROV1 ovarian
[26] = test system: MDA-MB-231 breast
[27] = test system: HS 578T breast
[28] = test system: TK-10 renal
[29] = test system: SNB-75 CNS
[30] = test system: MALME-3M melanoma
[31] = test system: EKVX NSCLC
[32] = test system: A498 renal
[33] = test system: SNB-19 CNS
[34] = test system: SF-295 CNS
[35] = test system: K-562 leukemia
[36] = test system: MDA-MB-468 breast
[37] = test system: ACHN renal
[38] = test system: MDA-MB-435

## Brc1ccc(-c2n(Cc3ccc4ccccc4c3)c(-c3ccccc3)c(-c3ccccc3)[n+]2Cc2ccc3ccccc3c2)cc1
[1]
  GI50: 0.344 µM
  TGI: 1.37 µM
[2]
  GI50: 0.276 µM
  TGI: 1.13 µM
[3]
  GI50: 0.253 µM
  TGI: 2.79 µM
[4]
  GI50: 0.221 µM
  TGI: 0.816 µM
[5]
  GI50: 0.428 µM
  TGI: 1.58 µM
[6]
  GI50: 0.3 µM
  TGI: 1.4 µM
[7]
  GI50: 0.124 µM
  TGI: 0.744 µM
[8]
  GI50: 0.381 µM
  TGI: 1.48 µM
[9]
  GI50: 0.338 µM
  TGI: 1.25 µM
[10]
  GI50: 0.212 µM
  TGI: 0.798 µM
[11]
  GI50: 0.695 µM
  TGI: 2.02 µM
[12]
  GI50: 0.248 µM
  TGI: 2.6 µM
[13]
  GI50: 0.285 µM
  TGI: 1.2 µM
[14]
  GI50: 0.272 µM
  TGI: 0.857 µM
[15]
  GI50: 0.169 µM
  TGI: 0.316 µM
[16]
  GI50: 1.44 µM
  TGI: 2.97 µM
[17]
  GI50: 0.154 µM
  TGI: 0.533 µM
[18]
  GI50: 0.332 µM
  TGI: 1.5 µM
[19]
  GI50: 0.302 µM
  TGI: 1.8 µM
[20]
  GI50: 0.244 µM
  TGI: 0.817 µM
[21]
  GI50: 1.13 µM
  TGI: 2.55 µM
[22]
  GI50: 0.305 µM
  TGI: 1.24 µM
[23]
  GI50: 0.342 µM
  TGI: 2.01 µM
[24]
  GI50: 0.256 µM
  TGI: 1.01 µM
[25]
  GI50: 0.301 µM
  TGI: 1.49 µM
[26]
  GI50: 0.239 µM
  TGI: 0.707 µM
[27]
  GI50: 0.439 µM
  TGI: 2.18 µM
[28]
  GI50: 0.296 µM
  TGI: 1.19 µM
[29]
  GI50: 0.189 µM
  TGI: 1.02 µM
[30]
  GI50: 0.214 µM
  TGI: 0.635 µM
[31]
  GI50: 0.197 µM
  TGI: 1.03 µM
[32]
  GI50: 0.338 µM
  TGI: 1.31 µM
[33]
  GI50: 0.314 µM
  TGI: 1.25 µM
[34]
  GI50: 0.22 µM
  TGI: 0.682 µM
[35]
  GI50: 0.152 µM
  TGI: 1.46 µM
[36]
  GI50: 0.0687 µM
  TGI: 0.494 µM
[37]
  GI50: 0.363 µM
  TGI: 1.24 µM
[38]
  GI50: 0.295 µM
  TGI: 1.07 µM
